{"source": "the RepoRT retention time repository (doi:10.1016/j.scitotenv.2015.09.145)"}
{"test": "Waters Atlantis T3, 100 × 2.1 mm, 3 µm, 0.1 mL/min, estimated dead time 2.2 min; A: water + 0.01% formic acid; B: methanol; gradient (min/%B) 0/2 3/2 20/100 29/100", "conditions": "stereoisomer not certain", "units": {"LC retention time": "min"}}
{"molecule": "CN1CCC23c4c5ccc(O)c4OC2C(O)C=CC3C1C5", "note": "(stereo not given)", "LC retention time": 10.1}
{"molecule": "CN1CCN2c3ncccc3Cc3ccccc3C2C1", "note": "(stereo not given)", "LC retention time": 15.5}
{"molecule": "NCC1(CC(=O)O)CCCCC1", "LC retention time": 13.3}
{"molecule": "CCN1CCCC1CNC(=O)c1cc(S(N)(=O)=O)ccc1OC", "note": "(stereo not given)", "LC retention time": 11.6}
{"molecule": "Cn1c([N+](=O)[O-])cnc1COC(N)=O", "LC retention time": 13.1}
{"molecule": "OCCOCCN1CCN(C2=Nc3ccccc3Sc3ccccc32)CC1", "LC retention time": 17.6}
{"molecule": "c1ccc2c(c1)Cc1cccnc1N1CCNCC21", "note": "(stereo not given)", "LC retention time": 15.7}
{"molecule": "Nc1ccc(S(=O)(=O)Nc2ncccn2)cc1", "LC retention time": 13.2}
{"molecule": "CC=C1N(C)C(C)CC1(c1ccccc1)c1ccccc1", "note": "(stereo not given)", "LC retention time": 16.9}
{"molecule": "Cc1noc(NS(=O)(=O)c2ccc(N)cc2)c1C", "LC retention time": 14.5}
{"molecule": "NC(N)=NS(=O)(=O)c1ccc(N)cc1", "LC retention time": 7.11}
{"molecule": "COc1cc(NS(=O)(=O)c2ccc(N)cc2)nc(OC)n1", "LC retention time": 17.5}
{"molecule": "CC(=O)C1CCC2C3CCC4=CC(=O)CCC4(C)C3CCC12C", "note": "(stereo not given)", "LC retention time": 24.7}
{"molecule": "CNCCC=C1c2ccccc2CCc2ccccc21", "LC retention time": 19.1}
{"molecule": "CCC1OC(=O)CC(O)C(C)C(OC2OC(C)C(OC3CC(C)(O)C(O)C(C)O3)C(N(C)C)C2O)C(CC=O)CC(C)C(=O)C=CC(C)=CC1COC1OC(C)C(O)C(OC)C1OC", "note": "(stereo not given)", "LC retention time": 18.3}
{"molecule": "COc1cc(NS(=O)(=O)c2ccc(N)cc2)ncn1", "LC retention time": 15.2}
{"molecule": "CC(=O)Nc1ccc(O)cc1", "LC retention time": 13.1}
{"molecule": "CNCC(c1ccc(OC)cc1)C1(O)CCCCC1", "note": "(stereo not given)", "LC retention time": 14.8}
{"molecule": "COc1ccc(C(CN(C)C)C2(O)CCCCC2)cc1", "note": "(stereo not given)", "LC retention time": 16.6}
{"molecule": "COc1ccc(NS(=O)(=O)c2ccc(N)cc2)nn1", "LC retention time": 16}
{"molecule": "CCNC(C)Cc1ccc2c(c1)OCO2", "note": "(stereo not given)", "LC retention time": 14.1}
{"molecule": "CC(N)Cc1ccc2c(c1)OCO2", "note": "(stereo not given)", "LC retention time": 13.6}
{"molecule": "CN(C)C1C(=O)C(C(N)=O)=C(O)C2(O)C(=O)C3=C(O)c4c(O)cccc4C(C)(O)C3CC12", "note": "(stereo not given)", "LC retention time": 14.8}
{"molecule": "Cc1cc2c(s1)Nc1ccccc1N=C2N1CCN(C)CC1", "LC retention time": 20.4}
{"molecule": "Cc1ccsc1C(=CCCN1CCCC(C(=O)O)C1)c1sccc1C", "note": "(stereo not given)", "LC retention time": 19.6}
{"molecule": "COc1ncnc(NS(=O)(=O)c2ccc(N)cc2)c1OC", "LC retention time": 16}
{"molecule": "Cc1ncc([N+](=O)[O-])n1CCO", "LC retention time": 13.2}
{"molecule": "Cc1cc(C)nc(NS(=O)(=O)c2ccc(N)cc2)n1", "LC retention time": 15}
{"molecule": "CCCC1CC(C(=O)NC(C(C)O)C2OC(SC)C(O)C(O)C2O)N(C)C1", "note": "(stereo not given)", "LC retention time": 13.3}
{"molecule": "Cc1nnc(NS(=O)(=O)c2ccc(N)cc2)s1", "LC retention time": 14.8}
{"molecule": "CC1c2cccc(O)c2C(O)=C2C(=O)C3(O)C(O)=C(C(N)=O)C(=O)C(N(C)C)C3C(O)C21", "note": "(stereo not given)", "LC retention time": 17.7}
{"molecule": "CCC(C(N)=O)N1CCCC1=O", "note": "(stereo not given)", "LC retention time": 13.6}
{"molecule": "COc1ccc2c3c1OC1C(O)C=CC4C(C2)N(C)CCC341", "note": "(stereo not given)", "LC retention time": 12.2}
{"molecule": "CC(C)CC(CN)CC(=O)O", "note": "(stereo not given)", "LC retention time": 13.2}
{"molecule": "CN(C)CCC=C1c2ccccc2COc2ccccc21", "LC retention time": 17.6}
{"molecule": "CN(C)C1C(=O)C(C(N)=O)=C(O)C2(O)C(=O)C3=C(O)c4c(O)cccc4C(C)(O)C3C(O)C12", "note": "(stereo not given)", "LC retention time": 15.1}
{"molecule": "CC(C)NCC(O)COc1cccc2ccccc12", "note": "(stereo not given)", "LC retention time": 17.1}
{"molecule": "CCCCC(=O)N(Cc1ccc(-c2ccccc2-c2nn[nH]n2)cc1)C(C(=O)O)C(C)C", "note": "(stereo not given)", "LC retention time": 23.2}
{"molecule": "CNC(C)C(O)c1ccccc1", "note": "(stereo not given)", "LC retention time": 12.4}
{"molecule": "CCC1OC(=O)C(C)C(OC2CC(C)(OC)C(O)C(C)O2)C(C)C(OC2OC(C)CC(N(C)C)C2O)C(C)(O)CC(C)CN(C)C(C)C(O)C1(C)O", "note": "(stereo not given)", "LC retention time": 17.4}
{"molecule": "O=C1CN=C(c2ccccc2)c2cc([N+](=O)[O-])ccc2N1", "LC retention time": 20.4}
{"molecule": "CCC1(c2ccccc2)C(=O)NCNC1=O", "LC retention time": 17}
{"molecule": "CCC1OC(=O)C(C)C(OC2CC(C)(OC)C(O)C(C)O2)C(C)C(OC2OC(C)CC(N(C)C)C2O)C(C)(OC)CC(C)C(=O)C(C)C(O)C1(C)O", "note": "(stereo not given)", "LC retention time": 19.6}
{"molecule": "CC(N)Cc1ccccc1", "note": "(stereo not given)", "LC retention time": 13.3}
{"molecule": "Cc1ccnc(NS(=O)(=O)c2ccc(N)cc2)n1", "LC retention time": 14.2}
{"molecule": "CN(C)CCC=C1c2ccccc2CCc2ccccc21", "LC retention time": 18.9}
{"molecule": "CN(C)CCCN1c2ccccc2CCc2ccccc21", "LC retention time": 18.6}
{"molecule": "Cc1nc(NS(=O)(=O)c2ccc(N)cc2)oc1C", "LC retention time": 16}
{"molecule": "CNCCC(Oc1cccc2ccccc12)c1cccs1", "note": "(stereo not given)", "LC retention time": 18.7}
{"molecule": "CC(=O)Oc1ccc2c3c1OC1C(OC(C)=O)C=CC4C(C2)N(C)CCC341", "note": "(stereo not given)", "LC retention time": 14.7}
{"molecule": "CNC(=C[N+](=O)[O-])NCCSCc1ccc(CN(C)C)o1", "LC retention time": 11.8}
{"molecule": "Nc1ccc(S(=O)(=O)Nc2ccccn2)cc1", "LC retention time": 13.8}
{"molecule": "CN=C(NC#N)NCCSCc1nc[nH]c1C", "LC retention time": 11.9}
{"molecule": "COC(=O)C1C(OC(=O)c2ccccc2)CC2CCC1N2C", "note": "(stereo not given)", "LC retention time": 14.9}
{"molecule": "CCN(CC)C(=O)C1C=C2c3cccc4[nH]cc(c34)CC2N(C)C1", "note": "(stereo not given)", "LC retention time": 15.8}
{"molecule": "Nc1ccc(S(=O)(=O)Nc2nccs2)cc1", "LC retention time": 13.5}
{"molecule": "COc1cccc(C2(O)CCCCC2CN(C)C)c1", "note": "(stereo not given)", "LC retention time": 14.6}
{"molecule": "CN1C2CCC1C(C(=O)O)C(OC(=O)c1ccccc1)C2", "note": "(stereo not given)", "LC retention time": 15.7}
{"molecule": "CCN1CCCC1CNC(=O)c1cc(S(=O)(=O)CC)c(N)cc1OC", "note": "(stereo not given)", "LC retention time": 13.4}
{"molecule": "CCn1cc(C(=O)O)c(=O)c2cc3c(cc21)OCO3", "LC retention time": 20.1}
{"molecule": "NC(=O)N1c2ccccc2CC(=O)c2ccccc21", "LC retention time": 18.8}
{"molecule": "CCN(C)C(=O)Oc1cccc(C(C)N(C)C)c1", "note": "(stereo not given)", "LC retention time": 14.8}
{"molecule": "Cc1cc(NS(=O)(=O)c2ccc(N)cc2)no1", "LC retention time": 15.7}
{"molecule": "CCC(C)(C)C(=O)OC1CC(C)C=C2C=CC(C)C(CCC3CC(O)CC(=O)O3)C21", "note": "(stereo not given)", "LC retention time": 27}
{"molecule": "CCC(=O)C(CC(C)N(C)C)(c1ccccc1)c1ccccc1", "note": "(stereo not given)", "LC retention time": 18.5}
{"molecule": "Cc1ccc(-c2nc3ccc(C)cn3c2CC(=O)N(C)C)cc1", "LC retention time": 15.5}
{"molecule": "COc1cc(Cc2cnc(N)nc2N)cc(OC)c1OC", "LC retention time": 13.5}
{"molecule": "COCC(NC(C)=O)C(=O)NCc1ccccc1", "note": "(stereo not given)", "LC retention time": 16.8}
{"molecule": "CC1=C(C(=O)O)N2C(=O)C(NC(=O)C(N)c3ccccc3)C2SC1", "note": "(stereo not given)", "LC retention time": 14.3}
{"molecule": "CCN(CC)CC(=O)Nc1c(C)cccc1C", "LC retention time": 14.2}
{"molecule": "Cn1c(=O)c2c(ncn2C)n(C)c1=O", "LC retention time": 15.2}
{"molecule": "CNC(C)Cc1ccc2c(c1)OCO2", "note": "(stereo not given)", "LC retention time": 17.4}
{"molecule": "COCCc1ccc(OCC(O)CNC(C)C)cc1", "note": "(stereo not given)", "LC retention time": 15}
{"molecule": "Nc1nc(N)c2nc(-c3ccccc3)c(N)nc2n1", "LC retention time": 14.7}
{"molecule": "CCC1OC(=O)C(C)C(OC2CC(C)(OC)C(O)C(C)O2)C(C)C(OC2OC(C)CC(N(C)C)C2O)C(C)(O)CC(C)C(=O)C(C)C(O)C1(C)O", "note": "(stereo not given)", "LC retention time": 18.5}
{"molecule": "COc1ccc2c3c1OC1C(=O)CCC4(O)C(C2)N(C)CCC314", "note": "(stereo not given)", "LC retention time": 12.6}
{"molecule": "CC(C)NCC(O)COc1ccc(CC(N)=O)cc1", "note": "(stereo not given)", "LC retention time": 11.7}
{"molecule": "CN1CCN2c3ncc(O)cc3Cc3ccccc3C2C1", "note": "(stereo not given)", "LC retention time": 14.4}
{"molecule": "CC(=O)OC1C=CC2C3Cc4ccc(O)c5c4C2(CCN3C)C1O5", "note": "(stereo not given)", "LC retention time": 13}
{"molecule": "Cn1c(=O)c2[nH]cnc2n(C)c1=O", "LC retention time": 14.3}
{"molecule": "Nc1ccc(S(=O)(=O)Nc2cnc3ccccc3n2)cc1", "LC retention time": 17.8}
{"molecule": "NC(=O)N1c2ccccc2C=Cc2ccccc21", "LC retention time": 20.1}
{"molecule": "CC1(C)SC2C(NC(=O)C(N)c3ccc(O)cc3)C(=O)N2C1C(=O)O", "note": "(stereo not given)", "LC retention time": 28.1}
{"molecule": "CNC(C)Cc1ccccc1", "note": "(stereo not given)", "LC retention time": 13.5}
{"molecule": "C=CC1(C)CC(OC(=O)CSCCN(CC)CC)C2(C)C(C)CCC3(CCC(=O)C32)C(C)C1O", "note": "(stereo not given)", "LC retention time": 18.1}
